# Source: paper PMC12408683 (Archives of Toxicology, 2025)
# Like-named read-outs stand apart in the source and are kept apart here.
# Columns and labels:
# HepG2 cells = test: Resazurin reduction assay (cytotoxicity) in HepG2 cells; conditions: for EC50: read-out: EC50 (cell viability)
# [1] = set-up: method as in Yang et al. 2021; conditions: PBPK modelling, dietary uptake 0.01 mg/kg bw and day; ref Yang et al. 2021; cited from earlier work
# male F344 gpt delta rats = test system: male F344 gpt delta rats; set-up: method as in Suzuki et al. 2012a; conditions: top dose 200 mg ES/kg bw for 4 weeks; ref Suzuki et al. 2012a; cited from earlier work
SMILES,"cell viability (HepG2 cells; 50 µM 1′OH-ES, 24 h treatment + 72 h recovery)",EC50 (HepG2 cells; 24 h) [µM],EC50 (HepG2 cells; 72 h) [µM],predicted ES concentration in liver venous blood [1] [µM],"mutagenicity, increase vs. control (male F344 gpt delta rats)"
"C=CC(O)c1ccc(OC)cc1 (centres unmarked) [1′OH-ES, 1′-hydroxyestragole]",above 70%,43,27,–,–
"C=CCc1ccc(OC)cc1 [ES, estragole]",–,–,–,0.01,twofold
